# From patent US8071760B2, “Boron-containing porphyrin compounds and their uses” (Board of Supervisors of Louisiana State University and …, priority 2005, dated 2011)
# Entries after “also recorded” stand apart in the source; their conditions may differ. Marks after values point to notes of the source that are not given here.
# Legend:
# [1] = solubility in solvents and water; type: physicochemical
# Description: Compound 18 was converted to the water-soluble TBP Compound 19 with tert-butylammonium fluoride in THF, followed by cation exchange.
# [2] = test system: human glioblastoma T98G cells; assay: Time-dependent cellular uptake; type: cell-based; conditions: 10 μM, FIG. 12
# Description: (§1) Human glioblastoma T98G cells and cervical carcinoma HEp2 cells were obtained from ATCC. Both cell lines were maintained in 50% α-MEM/advanced MEM, supplemented with 5% fetal bovine serum. Phosphate buffered saline (PBS), fetal bovine serum, and trypsin were purchased from Gibco; Cyquant reagent and Lysosensor were purchased from Molecular Probes, and Triton X-100 was purchased from Calbiochem. Microscopy was performed on a Zeiss Axiovert 200M inverted fluorescence microscope fitted with standard Texas Red and FITC filter sets (Chroma Technology Corp.). Images were acquired with a Zeiss Axiocam MRM CCD camera fitted to the microscope, and were pseudo-colored with Adobe Photoshop® CS version 8.0. Compounds 19 and 20 were dissolved in DMSO (Sigma-Aldrich) prior to being diluted into cell medium so that the final DMSO concentration never exceeded 1%. All medium solutions were filter-sterilized ([…] pore size) prior to use. All data obtained in the FLUOstar plate reader was analyzed using Prism 3.0 graphing software.
# Human T98G cells were sub-cultured and incubated for 48 h as otherwise described above. A filter-sterilized, 10 μM stock solution of TBP 19 in 1% DMSO/medium was added, and the cells were incubated for 24, 16, 8, 4, 2, 1, 0.5 and 0 h. […] Known and unknown concentrations of TBP 19 were determined as described above for the concentration-dependent uptake. […]
# [3] = test system: human glioblastoma T98G cells; assay: Concentration-dependent cellular uptake; type: cell-based; conditions: for dependence of uptake on concentration: up to 200 μM
# Description: as §1, with “Compounds 19 and 20 were dissolved in DMSO (Sigma-Aldrich) prior to being diluted into cell medium so that the final DMSO concentration never exceeded 1%.” left out
# Human T98G cells were sub-cultured on 96-well plates at 10,000 cells/100 μL α-MEM/advanced medium per well, and were incubated for 48 h. […] A standard curve for different cell numbers was obtained by placing 100,000, 80,000, 60,000, 40,000, 20,000, 10,000, and 0 cells in the wells, followed by incubation for 3 h. A standard graph was prepared from the wells with known cell numbers. Unknown cell numbers from the experiments were determined by first adding 100 μL/well of 5 μM stock solution of Cyquant reagent in PBS, and then reading the plate on a FLUOstar plate reader using 480 nm excitation and 520 emission filters. The same procedure was followed for determining the concentration-dependent cellular uptake of porphyrin 20, but using 570 nm excitation and 650 nm emission filters.
# BALB/c mice = assay: Animal toxicity (clinical signs, serum chemistry, histopathology); type: in vivo; conditions: for AP / Albumin / BUN / Bilirubin / Globulin / Glucose / Total Prot. / ALT / AST: serum, blood 48 h after administration, group mean; for ALT / AST: in U/L (unit assumed)
# Description: Twelve groups of two BALB/c mice each, 4-6 weeks of age and weighing 12-24 g (mean=19 g), were used for toxicity studies. There were 8 female and 16 male mice. Mice in groups 1, 3, 5, 7, and 9 were administered TBP 19 once via i.p. injection, at increasing dosages: group 1 (20 mg/kg of a 2 mg/ml solution), group 3 (40 mg/kg of a 2 mg/ml solution), group 5 (80 mg/kg of a 4 mg/ml solution), group 7 (120 mg/kg of a 4 mg/ml solution), and group 9 (160 mg/kg of a 4 mg/ml solution). Mice in groups 2, 4, 6, 8, and 10 were administered porphyrin 20 once via i.p. injection at increasing dosages: group 2 (20 mg/kg of a 2 mg/ml solution), group 4 (40 mg/kg of a 2 mg/ml solution), group 6 (80 mg/kg of a 4 mg/ml solution), group 8 (120 mg/kg of a 4 mg/ml solution), and group 10 (160 mg/kg of a 4 mg/ml solution). Two groups of mice served as vehicle controls. Mice in group 11 received sterile 4% Cremophor EL (Fluka) in PBS and served as controls for mice receiving 20, 40, and 80 mg/kg compound; while mice in group 12 received 6% Cremophor EL and served as controls for mice receiving 120 and 160 mg/kg compound.
# For each compound, groups were dosed sequentially and each group was evaluated daily for signs of toxicity, including hunched posture, rough hair coat, and decreased responsiveness. Mice were anesthetized with CO2 48 h after compound administration, and blood was collected by cardiocentesis for clinical chemistry evaluation. Serum chemistry was analyzed, including glucose, aspartate aminotransferase (AST), alanine aminotransferase (ALT), alkaline phosphatase (AP), bilirubin, total protein (TP), albumin, globulin, and blood urea nitrogen (BUN). The mice were exsanguinated and necropsies were performed. Tissues, including lung, kidney, thymus, heart, Harderian gland, spleen, stomach, small intestine and colon were fixed in 10% neutral buffered formalin. The fixed tissues were processed and examined by a board-certified pathologist.
# Human HEp2 cells = assay: Intracellular localization (fluorescence microscopy, Lysosensor co-localization); type: cell-based; conditions: 50 μM, 24 h incubation, fluorescence pattern and overlay with Lysosensor; listed as TBP 19
# Description: as §1
# Human HEp2 cells were sub-cultured on Lab-Tek II chamber cover slips with α-MEM/advanced medium for 48 h. TBP 5 was added to each chamber to reach a final concentration of 50 μM. […] New medium containing 50 mM HEPES pH 7.4 was added, and the cells were examined immediately by fluorescence microscopy. […]
# [4] = T98G cells, 3 h exposure, FIG. 11
# [5] = BALB/c mice, 20 mg/kg single i.p. injection
# [6] = BALB/c mice, 40 mg/kg single i.p. injection
# [7] = BALB/c mice, 80 mg/kg single i.p. injection
# [8] = BALB/c mice, 120 mg/kg single i.p. injection
# [9] = BALB/c mice, 160 mg/kg single i.p. injection
substance,measurement,setting,value
"5,10,15,20-Tetra(4′-cobaltacarborane 4-hydroxyphenyl)porphyrin [Compound 13]",solubility in methanol,[1],soluble
"5,10,15,20-Tetra(4′-cobaltacarboranepyridyl)porphyrin [Compound 5]",solubility in polar organic solvents,"[1]; acetone, ethyl acetate, acetonitrile, DMF, and DMSO",highly soluble
same,solubility in methanol,[1],not
"5,10,15,20-Tetra[4-(nido-carboranyl)phenyl-tetrabenzoporphyrin [Compound 19]",solubility in polar organic solvents,"[1]; such as acetone, methanol and DMSO",highly soluble
same,solubility in water,[1]; water,slightly soluble
same,amount within T98G cells relative to Compound 20,[2]; after 24 h,approximately 3 times
same,time-dependent uptake compared with porphyrin 20,[2]; all times 0-24 h,taken up faster and to a greater extent
same,"concentration accumulated within cells, higher than porphyrin 20",[3]; [4],approximately 30%
same,dependence of uptake on concentration,[3]; [4],"increased with increasing concentration, in an almost linear fashion"
same,uptake in T98G cells in comparison with carboranylporphyrin 20,"[3]; in vitro, in words",significantly higher uptake
same,toxicity to BALB/c mice,"BALB/c mice; 160 mg/kg, single i.p. injection, 4 mg/mL, listed as TBP 19",non-toxicity; also recorded: non-toxic
same,signs of toxicity,"BALB/c mice; BALB/c mice, 20-160 mg/kg single i.p. injection, daily evaluation",No signs of toxicity
same,serum chemistry changes attributable to compound,"BALB/c mice; BALB/c mice, i.p., maximum 160 mg/kg",No serum chemistry changes were observed
same,"clinical, biochemical, or histopathological effects attributable to administration","BALB/c mice; BALB/c mice, single i.p. injection up to 160 mg/kg","No clinical, biochemical, or histopathological effects were observed"
same,"toxicity compared with other negatively charged carboranyl-containing porphyrins (BOPP, MnBOPP, BTPP, NiNTCP-H, ZnDPE, NiDPE)","BALB/c mice; mice, preliminary results",significantly less toxic
same,AP,BALB/c mice; [5],"189.5^a,c"
same,Albumin,BALB/c mice; [5],2.85 g/dL
same,BUN,BALB/c mice; [5],28 mg/dL
same,Bilirubin,BALB/c mice; [5],0.15 mg/dL
same,Globulin,BALB/c mice; [5],1.8^a
same,Glucose,BALB/c mice; [5],153.5^a
same,Total Prot.,BALB/c mice; [5],4.65 g/dL
same,ALT,BALB/c mice; [5],151.5
same,AST,BALB/c mice; [5],177.5
same,AP,BALB/c mice; [6],"201.0^b,c"
same,Albumin,BALB/c mice; [6],2.8 g/dL
same,BUN,BALB/c mice; [6],27 mg/dL
same,Bilirubin,BALB/c mice; [6],0.2 mg/dL
same,Globulin,BALB/c mice; [6],1.9^a
same,Glucose,BALB/c mice; [6],219.5^c
same,Total Prot.,BALB/c mice; [6],4.7 g/dL
same,ALT,BALB/c mice; [6],96.5
same,AST,BALB/c mice; [6],455.5
same,AP,BALB/c mice; [7],138.0^a
same,Albumin,BALB/c mice; [7],2.75 g/dL
same,BUN,BALB/c mice; [7],25.5 mg/dL
same,Bilirubin,BALB/c mice; [7],0.2 mg/dL
same,Globulin,BALB/c mice; [7],2.35^b
same,Glucose,BALB/c mice; [7],229.5^c
same,Total Prot.,BALB/c mice; [7],5.1 g/dL
same,ALT,BALB/c mice; [7],120.0
same,AST,BALB/c mice; [7],454.5
same,AP,BALB/c mice; [8],161.0^a
same,Albumin,BALB/c mice; [8],2.75^a
same,BUN,BALB/c mice; [8],"15.5^a,b"
same,Bilirubin,BALB/c mice; [8],0.2 mg/dL
same,Globulin,BALB/c mice; [8],2.35^a
same,Total Prot.,BALB/c mice; [8],5.1^a
same,ALT,BALB/c mice; [8],29.0
same,AST,BALB/c mice; [8],73.0
same,Glucose,"BALB/c mice; BALB/c mice, 120 mg/kg single i.p. injection, in mg/dL (unit assumed)",224.5
same,AP,BALB/c mice; [9],223.5^b
same,BUN,BALB/c mice; [9],"22.5^b,c"
same,Bilirubin,BALB/c mice; [9],0.25 mg/dL
same,Globulin,BALB/c mice; [9],1.95^b
same,Total Prot.,BALB/c mice; [9],4.35^b
same,Albumin,"BALB/c mice; BALB/c mice, 160 mg/kg single i.p. injection, 160 mg/kg",lower than for other mice
same,ALT,BALB/c mice; [9],206.0
same,AST,BALB/c mice; [9],498.0
same,Glucose,"BALB/c mice; BALB/c mice, 160 mg/kg single i.p. injection, in mg/dL (unit assumed)",172.0
same,Albumin,"BALB/c mice; BALB/c mice, 160 mg/kg single i.p. injection, listed as TBP 5, 160 mg/kg",2.4^b
same,site of intracellular localization,Human HEp2 cells,localization in the cellular lysosomes
"5,10,15,20-Tetra[4-(o-carboranyl)phenyl-tetrabenzoporphyrin [Compound 18]",solubility in organic solvents,[1]; such as dichloromethane and acetone,soluble
"tetra(nido-carboranylphenyl)porphyrin [Compound 20, reference compound]",dependence of uptake on concentration,[3]; [4],"increased with increasing concentration, in an almost linear fashion"
